Consider 22 molecules from patent US10155722B2, “Antitumor compound targeting IDH2 mutation and method of use thereof” (CHIA TAI TIANQING PHARMACEUTICAL GROUP CO., LTD., priority 2015, dated 2018).

Like-named read-outs stand apart in the source and are kept apart here.

Data set [1] concerns glioma cells carrying the IDH1 mutant. The conditions noted are these: cited from earlier work.
The test system of data set [2] is glioma cells. The note with it: oral administration to mice with a transplanted tumour; cited from earlier work.
Data set [3] relates to cells carrying the most common IDH1 mutant. The note with it: cited from earlier work.
The test system of data set [4] is glioma cells. The note with it: treatment of cell cultures; cited from earlier work.
A further data set deals with IDH2 (R172K, 40-end) (Homo sapiens (Human), UniProt P48735, R172K). The data set can be described thus: IDH2 (R172K, 40-end) inhibitory activity, NADPH depletion with diaphorase/resazurin readout. It counts as biochemical. The note with it: 80 nM enzyme, 40 μM NADPH, 4 mM α-KG. As to the method: The inhibitory activity of a compound against IDH2 (R172K, 40-end) was determined by the decrease of a helper factor NADPH. The test compound was pre-incubated with an enzyme and NADPH, and then a reaction was initiated by the addition of a-KG, and performed for 120 minutes under a linear condition. Then, the reaction was terminated by the addition of diaphorase (lipoamide dehydrogenase) and the corresponding substrate resazurin. Diaphorase terminated the IDH2m reaction by decreasing the available helper factor NADPH, which oxidized NADPH to NADP, and reduced resazurin to highly fluorescent resorufin. The amount of remaining helper factor NADPH after a specific reaction time was quantified via an easily detectable fluorophore. Specifically, 2.5 μl of a 3-fold gradient diluted test compound was added to a 384-well plate, and then 5 μl of a reaction buffer (20 mM Tris-HCl, PH7.5; 150 mM NaCl; 10 mM MgC12; 10 mM MnCl2; 0.4 mg/ml BSA and 2 mM DTT) containing 80 nM IDH2 (R172K, 40-end) and 40 μM NADPH was added. Then, the resulting test mixture was incubated for 120 minutes at a temperature of 23° C., and then 2.5 μl of the reaction buffer containing 4 mM α-KG was added to initiate the reaction. After incubating for 120 minutes at room temperature, 5 μl of a termination mixture (0.4 U/ml diaphorase and 40 μM resazurin) prepared with the reaction buffer was added to convert resazurin to resorufin to determine the remaining NADPH. After incubating for 10 minutes at a temperature of 23° C., a fluorescence value was determined through Flexstation 3 at Ex535/Em595.

Data set [5] relates to leukemia cells carrying the IDH2 mutant. The conditions noted are these: cited from earlier work.
The subject of data set [6] is cells carrying the most common IDH2 mutant. The note with it: cited from earlier work.
Data set [7] in a line: Pharmacokinetics parameters in rats after intragastric administration. In kind it is in vivo. The note with it: for AUC(0-inf) / Cmax / Tmax / half-life: rat, po, male rats, intragastric, single dose 5 mg/kg, plasma; for half-life (in words) / metabolism in vivo (in words) / plasma concentration compared with AG-6780 at the same dose: rats, 5 mg/kg intragastric. As to the method: The pharmacokinetic parameters of compounds of the present application were determined by using the following method.
Healthy male adult rats (7-9 weeks old) were used in this study. Each group of animals (3 male rats) was intragastrically administered once at a single dose of 5 mg/kg with 10% DMSO+70% PEG400+20% NS as adjuvants. The animals in the intragastric administration group were fasted overnight before this study. The fasting time period was from 10 hours before administration to 4 hours after administration.
Blood samples were taken at 0.25, 0.5, 1, 2, 4, 6, 8 and 24 h after administration. The animals were anesthetized with isoflurane using an animal anesthesia machine, and then 0.3 mL whole blood samples were taken from the fundus venous plexus. The blood samples were placed in heparin anticoagulant tubes, and centrifuged for 5 min at 4° C. and 4000 rpm. The resulting plasmas were transferred to centrifuge tubes, and stored at −80° C. until analysis.
Verified LC-MS/MS method was used to analyze the plasma samples. Plasma concentration-time data of animals were analyzed using WinNonlin (Professional Edition, version 6.3; Pharsight Company) software. The non-compartmental model was introduced for concentration analysis.

IDH2 (R172K, 40-end), sequence (P48735 40-452 R172K): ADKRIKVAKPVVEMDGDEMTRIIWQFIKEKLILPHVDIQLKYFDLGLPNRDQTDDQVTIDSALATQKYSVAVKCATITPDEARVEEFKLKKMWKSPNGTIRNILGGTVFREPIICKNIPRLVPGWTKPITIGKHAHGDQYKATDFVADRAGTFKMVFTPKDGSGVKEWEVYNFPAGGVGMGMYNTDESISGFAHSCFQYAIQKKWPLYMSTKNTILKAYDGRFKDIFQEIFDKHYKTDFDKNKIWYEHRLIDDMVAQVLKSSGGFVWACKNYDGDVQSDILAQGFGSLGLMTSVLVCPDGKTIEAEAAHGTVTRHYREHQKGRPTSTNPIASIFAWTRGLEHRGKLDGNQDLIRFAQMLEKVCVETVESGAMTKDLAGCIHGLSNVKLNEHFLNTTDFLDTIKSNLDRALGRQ

On to `Cc1ccccc1C(C(=O)NC1CCCCC1)N(C(=O)Cn1ccnc1C)c1cccc(F)c1` (centres unmarked) [AGI-5198], for which, in data set [1], the “expression of mature markers” value is on record as “enhanced expression of mature markers”. Also, the “growth rate of glioma cells” value in the data set on glioma cells [2] and with glioma cells [4] was “inhibit the growth rate” throughout. The “generation of 2-HG” value in data set [3] is “inhibit the generation of 2-HG”.
One may read the IC50 as the concentration needed to halve the response being measured. Lower therefore signals higher potency. `CC(C(=O)NC1CC1)c1ccc(-c2ccsc2)c(NC(=O)Nc2cccc(C(F)(F)F)c2)c1` (centres unmarked) [Example 14, N-cyclopropyl-2-(4-(thiophen-3-yl)-3-(3-(3-(trifluoromethyl)phenyl)ureido)phenyl) propanamide] came in with an IC50 against IDH2 (R172K, 40-end) of 0.0699 µM.
In general, AUC(0-inf) refers to the area under the concentration-time curve extrapolated to infinity. Low readings indicate low exposure, high ones high exposure. One may read the Cmax as the maximum level reached in the sampled fluid or tissue. As usually defined, the Tmax is the time from dosing to the highest level. Broadly, the half-life is the time in which the quantity being followed falls by half. Low values mean fast loss, high ones slow loss. With `O=C(Nc1cccc(C(F)(F)F)c1)Nc1cc(S(=O)(=O)NC2CC2)ccc1-c1ccsc1` [AGI-6780, reference compound], the “expression of mature markers” value in data set [5] is on record as “enhanced expression of mature markers”. Also, the “generation of 2-HG” value in data set [6] is “inhibit the generation of 2-HG”. Moreover, in data set [7], the area under the curve AUC(0-inf) is 559 ng·h/mL, the Cmax was determined as 191 ng/mL, the Tmax was 2.83 h and the half-life is 1.49 h.
In the case of `O=C(Nc1cccc(C(F)(F)F)c1)Nc1cc(CNC(=O)C2CC2)ccc1-c1ccsc1` [Example 28, N-(4-(thiophen-3-yl)-3-(3-(3-(trifluoromethyl)phenyl)ureido)benzyl) cyclopropanecarboxamide], inhibition on IDH2 (R172K, 40-end) was half-maximal at 0.055 µM (IC50). In addition, in data set [7], the AUC(0-inf) came out at 844 ng·h/mL, the Cmax worked out at 414 ng/mL, the Tmax turned out to be 0.33 h and the half-life was 2.34 h. In addition, in data set [7], the “half-life (in words)” value is on record as “long half-life”, the “metabolism in vivo (in words)” value is on record as “very good metabolism in vivo” and the “plasma concentration compared with AG-6780 at the same dose” value was “higher plasma concentration”.
Molecule `O=C(Nc1cccc(C(F)(F)F)c1)Nc1cc(C2(C(=O)NC3CC3)CC2)ccc1-c1ccsc1` [Example 17, N-cyclopropyl-1-(4-(thiophen-3-yl)-3-(3-(3-(trifluoromethyl)phenyl)ureido)phenyl) cyclopropanecarboxamide] displayed an IC50 at IDH2 (R172K, 40-end) of 0.138 µM. This lies in the sub-micromolar range.
On IDH2 (R172K, 40-end), `Cc1cc(-c2ccc(C(F)(F)C(=O)NC3CC3)cc2NC(=O)Nc2cccc(C(F)(F)F)c2)n(C)n1` [Example 13, N-cyclopropyl-2-(4-(1,3-dimethyl-1H-pyrazol-5-yl)-3-(3-(3-(trifluoromethyl)phenyl)ureido)phenyl)-2,2-difluoroacetamide] displayed a 50% inhibitory concentration (IC50) of 0.106 µM.
On the same count and under the same terms, to `CCC(C(=O)NC1CC1)c1ccc(-c2ccsc2)c(NC(=O)Nc2cccc(C(F)(F)F)c2)c1` (centres unmarked) [Example 20, N-cyclopropyl-2-(4-(thiophen-3-yl)-3-(3-(3-(trifluoromethyl)phenyl)ureido)phenyl) butanamide] belongs 0.362 µM.
On the same count and under the same terms, as for `CC(C)(C(=O)NC1CC1)c1ccc(-c2ccsc2)c(NC(=O)Nc2cccc(C(F)(F)F)c2)c1` [Example 15, N-cyclopropyl-2-methyl-2-(4-(thiophen-3-yl)-3-(3-(3-(trifluoromethyl)phenyl)ureido)phenyl)propanamide], the figure is 0.0657 µM.
`CC(NC(=O)C1CC1)c1ccc(-c2ccsc2)c(NC(=O)Nc2cccc(C(F)(F)F)c2)c1` (centres unmarked) [Example 27, N-(1-(4-(thiophen-3-yl)-3-(3-(3-(trifluoromethyl)phenyl)ureido)phenyl)ethyl) cyclopropanecarboxamide]: at IDH2 (R172K, 40-end), the IC50 was 0.0829 µM.
Molecule `CC(NC1CC1)c1ccc(-c2ccsc2)c(NC(=O)Nc2cccc(C(F)(F)F)c2)c1` (centres unmarked) [Example 24, 1-(5-(1-(cyclopropylamino)ethyl)-2-(thiophen-3-yl)phenyl)-3-(3-(trifluoromethyl)phenyl)urea] gave an IC50 on IDH2 (R172K, 40-end) of 0.312 µM.
As to `N#CC1(NC(=O)C(F)(F)c2ccc(-c3ccsc3)c(NC(=O)Nc3cccc(C(F)(F)F)c3)c2)CC1` [Example 4, N-(1-cyanocyclopropyl)-2,2-difluoro-2-(4-(thiophen-3-yl)-3-(3-(3-(trifluoromethyl)phenyl)ureido)phenyl)acetamide], the IC50 against IDH2 (R172K, 40-end) was found to be 0.0565 µM. This IC50 lies about 5.5-fold lower than the previous one.
`O=C(Nc1cccc(C(F)(F)F)c1)Nc1cc(C(F)(F)C(=O)NC2CC2)ccc1-c1ccsc1` [Example 1, N-cyclopropyl-2,2-difluoro-2-(4-(thiophen-3-yl)-3-(3-(3-(trifluoromethyl)phenyl)ureido)phenyl)acetamide] displayed an IC50 at IDH2 (R172K, 40-end) of 0.0142 µM.
On IDH2 (R172K, 40-end), `O=C(Cc1ccc(-c2ccsc2)c(NC(=O)Nc2cccc(C(F)(F)F)c2)c1)NC1CC1` [Example 16] displayed a half-inhibitory concentration (IC50) of 0.0758 µM. Compared with the last molecule, the IC50 is about 5.3-fold higher.
Turning to `CC(C)NC(=O)C(F)(F)c1ccc(-c2ccsc2)c(NC(=O)Nc2cccc(C(F)(F)F)c2)c1` [Example 3], at IDH2 (R172K, 40-end), the half-maximal inhibitory concentration (IC50) stood at 0.0624 µM.
As to `O=C(Nc1cccc(C(F)(F)F)c1)Nc1cc(C(F)(F)C(=O)NC2COC2)ccc1-c1ccsc1` [Example 5, 2,2-Difluoro-N-(oxetan-3-yl)-2-(4-(thiophen-3-yl)-3-(3-(3-(trifluoromethyl)phenyl)ureido)phenyl)acetamide], the IC50 at IDH2 (R172K, 40-end) was 0.0295 µM. Besides, in data set [7], the AUC(0-inf) was 858 ng·h/mL, the Cmax was found to be 495 ng/mL, the time of peak concentration (Tmax) amounted to 0.42 h and the half-life is 4.37 h. Besides, in data set [7], the “half-life (in words)” value is listed as “long half-life”, the “metabolism in vivo (in words)” value is “very good metabolism in vivo” and the “plasma concentration compared with AG-6780 at the same dose” value is “higher plasma concentration”.
`O=C(Nc1cccc(C(F)(F)F)c1)Nc1cc(C2(C(=O)NC3CC3)CCC2)ccc1-c1ccsc1` [Example 19, N-cyclopropyl-1-(4-(thiophen-3-yl)-3-(3-(3-(trifluoromethyl)phenyl)ureido)phenyl) cyclobutanecarboxamide]: at IDH2 (R172K, 40-end), the concentration for half-maximal inhibition (IC50) was 0.0875 µM.
`O=C(Nc1cccc(C(F)(F)F)c1)Nc1cc(C(=O)NC2CC2)ccc1-c1ccsc1` [Example 23, N-cyclopropyl-4-(thiophen-3-yl)-3-(3-(3-(trifluoromethyl)phenyl)ureido)benzamide] had a half-maximal inhibitory concentration (IC50) at IDH2 (R172K, 40-end) of 0.551 µM.
`NC(C(=O)NC1CC1)c1ccc(-c2ccsc2)c(NC(=O)Nc2cccc(C(F)(F)F)c2)c1` (centres unmarked) [Example 21, 2-Amino-N-cyclopropyl-2-(4-(thiophen-3-yl)-3-(3-(3-(trifluoromethyl)phenyl)ureido)phenyl)acetamide] came in with a half-inhibitory concentration (IC50) against IDH2 (R172K, 40-end) of 0.623 µM.
`O=C(Nc1cccc(C(F)(F)F)c1)Nc1cc(C(F)(F)C(=O)NC2CC2)ccc1-c1ccccc1` [Example 12, N-cyclopropyl-2,2-difluoro-2-(2-(3-(3-(trifluoromethyl)phenyl)ureido)-[1,1′-biphenyl]-4-yl)acetamide] displayed a concentration for half-maximal inhibition (IC50) against IDH2 (R172K, 40-end) of 0.0537 µM.
For the molecule `O=C(Nc1cccc(C(F)(F)F)c1)Nc1cc(C(F)(F)C(=O)NCC(F)(F)F)ccc1-c1ccsc1` [Example 2], half-maximal inhibition at IDH2 (R172K, 40-end) (IC50) was put at 0.0455 µM.
Molecule `CC(C)(C(=O)NC1CC1)c1ccc(-c2ccsc2)c(NC(=O)Nc2ccc3c(c2)C(=O)NC3)c1` [Example 18, N-cyclopropyl-2-methyl-2-(3-(3-(3-oxoisoindol-5-yl)ureido)-4-(thiophen-3-yl)phenyl) propanamide] displayed an IC50 against IDH2 (R172K, 40-end) of 1.23 µM.
In turn, `O=C(Nc1ccc(F)c(C(F)(F)F)c1)Nc1cc(C(F)(F)C(=O)NC2CC2)ccc1-c1ccsc1` [Example 10, N-cyclopropyl-2,2-difluoro-2-(3-(3-(4-fluoro-3-(trifluoromethyl)phenyl)ureido)-4-(thiophen-3-yl)phenyl)acetamide] displayed an IC50 at IDH2 (R172K, 40-end) of 0.391 µM. Against the preceding molecule, the IC50 is about 3.1-fold lower.
